{"source": "the OligoGym collection", "note": "HELM strings list units from the 5' end as sugar, base in round brackets, then linkage (d deoxyribose, r ribose, m 2'-O-methyl, p phosphodiester). Strings are as the collection lists them; they lack the last nucleoside at the 3' end of the tested compound. [moe] = 2'-O-(2-methoxyethyl) (MOE); [sp] = phosphorothioate linkage; [m5C] = 5-methylcytosine"}
{"target": "ATXN2", "assay": "mouse, dose not given", "settings": "ASO", "units": {"3 h FOB score": "score 0-7"}}
{"substance": "RNA1{[moe]([m5C])[sp].[moe](T)p.[moe](G)p.[moe]([m5C])p.[moe](T)p.d(A)[sp].d(A)[sp].d([m5C])[sp].d(T)[sp].d(G)[sp].d(G)[sp].d(T)[sp].d(T)[sp].d(T)[sp].d(G)[sp].[moe]([m5C])p.[moe]([m5C])p.[moe]([m5C])[sp].[moe](T)}$$$$ (last 3' nucleoside missing)", "3 h FOB score": 6}
{"substance": "RNA1{[moe]([m5C])[sp].[moe](T)p.[moe](G)p.[moe]([m5C])p.d(T)[sp].d(A)[sp].d(A)[sp].d([m5C])[sp].d(T)[sp].d(G)[sp].d(G)[sp].d(T)[sp].d(T)[sp].d(T)[sp].[moe](G)p.[moe]([m5C])p.[moe]([m5C])p.[moe]([m5C])[sp].[moe](T)}$$$$ (last 3' nucleoside missing)", "3 h FOB score": 1}
{"substance": "RNA1{[moe]([m5C])[sp].[moe](T)p.[moe](T)p.[moe](A)p.[moe](G)[sp].d(A)[sp].d(G)[sp].d(T)[sp].d(T)[sp].d(T)[sp].d(T)[sp].d(T)[sp].d(G)[sp].[moe]([m5C])p.[moe]([m5C])p.[moe](T)[sp].[moe](T)}$$$$ (last 3' nucleoside missing)", "3 h FOB score": 6}
{"substance": "RNA1{[moe]([m5C])[sp].[moe](T)p.[moe](T)p.[moe](A)p.[moe](G)p.[moe](A)p.d(G)[sp].d(T)[sp].d(T)[sp].d(T)[sp].d(T)[sp].d(T)[sp].d(G)[sp].d([m5C])[sp].d([m5C])[sp].d(T)[sp].[moe](T)p.[moe]([m5C])[sp].[moe]([m5C])}$$$$ (last 3' nucleoside missing)", "3 h FOB score": 4.5}
{"substance": "RNA1{[moe]([m5C])[sp].[moe](T)p.[moe](T)p.[moe](A)p.[moe](G)p.d(A)[sp].d(G)[sp].d(T)[sp].d(T)[sp].d(T)[sp].d(T)[sp].d(T)[sp].d(G)[sp].d([m5C])[sp].d([m5C])[sp].[moe](T)p.[moe](T)p.[moe]([m5C])[sp].[moe]([m5C])}$$$$ (last 3' nucleoside missing)", "3 h FOB score": 4}
{"substance": "RNA1{[moe]([m5C])[sp].[moe](T)p.[moe](T)p.[moe](A)p.d(G)[sp].d(A)[sp].d(G)[sp].d(T)[sp].d(T)[sp].d(T)[sp].d(T)[sp].d(T)[sp].d(G)[sp].d([m5C])[sp].[moe]([m5C])p.[moe](T)p.[moe](T)p.[moe]([m5C])[sp].[moe]([m5C])}$$$$ (last 3' nucleoside missing)", "3 h FOB score": 5.5}
{"substance": "RNA1{[moe]([m5C])[sp].[moe](T)p.[moe](T)p.[moe](G)p.[moe](T)p.d(A)[sp].d([m5C])[sp].d(T)[sp].d(T)[sp].d([m5C])[sp].d(A)[sp].d([m5C])[sp].d(A)[sp].d(T)[sp].d(T)[sp].[moe](T)p.[moe](G)p.[moe](G)[sp].[moe](A)}$$$$ (last 3' nucleoside missing)", "3 h FOB score": 2.25}
{"substance": "RNA1{[moe]([m5C])[sp].[moe](T)p.[moe](T)p.[moe](G)p.[moe](T)p.d(T)[sp].d(G)[sp].d(T)[sp].d(T)[sp].d(G)[sp].d(T)[sp].d(T)[sp].d(T)[sp].d(A)[sp].d([m5C])[sp].[moe](A)p.[moe](T)p.[moe](T)[sp].[moe](A)}$$$$ (last 3' nucleoside missing)", "3 h FOB score": 3}
{"substance": "RNA1{[moe]([m5C])[sp].[moe](T)p.[moe](T)p.[moe](T)p.[moe](T)[sp].d([m5C])[sp].d(T)[sp].d([m5C])[sp].d(A)[sp].d(T)[sp].d(G)[sp].d(T)[sp].d(G)[sp].[moe]([m5C])p.[moe](G)p.[moe](G)[sp].[moe]([m5C])}$$$$ (last 3' nucleoside missing)", "3 h FOB score": 5.5}
{"substance": "RNA1{[moe]([m5C])[sp].[moe](T)p.[moe](T)p.[moe](T)p.[moe](T)p.d([m5C])[sp].d(T)[sp].d([m5C])[sp].d(A)[sp].d(T)[sp].d(G)[sp].d(T)[sp].d(G)[sp].d([m5C])[sp].d(G)[sp].[moe](G)p.[moe]([m5C])p.[moe](A)[sp].[moe](T)}$$$$ (last 3' nucleoside missing)", "3 h FOB score": 6.25}
{"substance": "RNA1{[moe]([m5C])[sp].[moe](T)p.[moe](T)p.[moe]([m5C])p.[moe](T)[sp].d([m5C])[sp].d(T)[sp].d(A)[sp].d(T)[sp].d(T)[sp].d(T)[sp].d([m5C])[sp].d(T)[sp].[moe](T)p.[moe](T)p.[moe](G)[sp].[moe](T)}$$$$ (last 3' nucleoside missing)", "3 h FOB score": 0}
{"substance": "RNA1{[moe]([m5C])[sp].[moe](T)p.[moe](T)p.[moe]([m5C])p.[moe](T)p.d(G)[sp].d([m5C])[sp].d(T)[sp].d(A)[sp].d(A)[sp].d([m5C])[sp].d(T)[sp].d(G)[sp].d(G)[sp].d(T)[sp].[moe](T)p.[moe](T)p.[moe](G)[sp].[moe]([m5C])}$$$$ (last 3' nucleoside missing)", "3 h FOB score": 2.5}
{"substance": "RNA1{[moe]([m5C])[sp].[moe](T)p.[moe](T)p.[moe]([m5C])p.[moe](T)p.d([m5C])[sp].d(T)[sp].d(A)[sp].d(T)[sp].d(T)[sp].d(T)[sp].d([m5C])[sp].d(T)[sp].d(T)[sp].d(T)[sp].[moe](G)p.[moe](T)p.[moe]([m5C])[sp].[moe]([m5C])}$$$$ (last 3' nucleoside missing)", "3 h FOB score": 1}
{"substance": "RNA1{[moe]([m5C])[sp].[moe](T)p.[moe]([m5C])p.[moe](T)p.[moe](A)[sp].d(T)[sp].d(T)[sp].d(T)[sp].d([m5C])[sp].d(T)[sp].d(T)[sp].d(T)[sp].d(G)[sp].[moe](T)p.[moe]([m5C])p.[moe]([m5C])[sp].[moe](A)}$$$$ (last 3' nucleoside missing)", "3 h FOB score": 3.5}
{"substance": "RNA1{[moe]([m5C])[sp].[moe](T)p.[moe]([m5C])p.[moe](T)p.[moe](A)p.d(T)[sp].d(T)[sp].d(T)[sp].d([m5C])[sp].d(T)[sp].d(T)[sp].d(T)[sp].d(G)[sp].d(T)[sp].d([m5C])[sp].[moe]([m5C])p.[moe](A)p.[moe](G)[sp].[moe](G)}$$$$ (last 3' nucleoside missing)", "3 h FOB score": 3.5}
{"substance": "RNA1{[moe]([m5C])[sp].[moe](T)p.[moe]([m5C])p.[moe](T)p.[moe]([m5C])[sp].d([m5C])[sp].d(A)[sp].d(T)[sp].d(T)[sp].d(A)[sp].d(T)[sp].d(T)[sp].d(T)[sp].[moe]([m5C])p.[moe](T)p.[moe](T)[sp].[moe]([m5C])}$$$$ (last 3' nucleoside missing)", "3 h FOB score": 0}
{"substance": "RNA1{[moe]([m5C])[sp].[moe](T)p.[moe]([m5C])p.[moe](T)p.[moe]([m5C])[sp].d([m5C])[sp].d(A)[sp].d(T)[sp].d(T)[sp].d(A)[sp].d(T)[sp].d(T)[sp].d(T)[sp].d([m5C])[sp].d(T)[sp].[moe](T)p.[moe]([m5C])p.[moe](A)[sp].[moe]([m5C])}$$$$ (last 3' nucleoside missing)", "3 h FOB score": 5.75}
{"substance": "RNA1{[moe]([m5C])[sp].[moe](T)p.[moe]([m5C])p.[moe](T)p.[moe]([m5C])p.[moe]([m5C])p.d(A)[sp].d(T)[sp].d(T)[sp].d(A)[sp].d(T)[sp].d(T)[sp].d(T)[sp].d([m5C])[sp].d(T)[sp].d(T)[sp].[moe]([m5C])p.[moe](A)[sp].[moe]([m5C])}$$$$ (last 3' nucleoside missing)", "3 h FOB score": 2}
{"substance": "RNA1{[moe]([m5C])[sp].[moe](T)p.[moe]([m5C])p.[moe](T)p.[moe]([m5C])p.d([m5C])[sp].d(A)[sp].d(T)[sp].d(T)[sp].d(A)[sp].d(T)[sp].d(T)[sp].d(T)[sp].d([m5C])[sp].d(T)[sp].[moe](T)p.[moe]([m5C])p.[moe](A)[sp].[moe]([m5C])}$$$$ (last 3' nucleoside missing)", "3 h FOB score": 4}
